Test results taken from publication PMC11222350, “Preclinical evaluation of [^18F]FP-CIT, the radiotracer targeting dopamine transporter for diagnosing Parkinson’s disease: pharmacokinetic and efficacy analysis” (EJNMMI Research, 2024).

Assay: Biodistribution and pharmacokinetic constants of [^18F]FP-CIT in normal mice
Type: in vivo, C57BL/6 mice
Conditions: for AUC / CL / Cmax / T1/2 / Tmax: normal mice (group I), 3.7 MBq i.v.
Experimental: Male C57BL/6 mice (group I) were anesthetized with 2% isoflurane in oxygen, and 3.7 MBq of [^18F]FP-CIT was intravenously injected via the tail vein. Mice were sacrificed at different time points (1, 5, 10, 30, 60, and 120 min after injection, n = 4 each), and the tissues of interest (blood, muscle, heart, lung, liver, spleen, stomach, intestine, kidney, bone, cerebellum, striatum, and remaining brain tissues) were harvested, weighed, and measured for radioactivity using a gamma counter (Wizard 1480; PerkinElmer, Waltham, MA, USA). The uptake in each tissue sample was expressed as a percentage of the injected dose per gram (%ID/g). The pharmacokinetic constants of [^18F]FP-CIT in normal C57BL/6 mice were calculated from the %ID/g results of its biodistribution.

[1] = 1 min post-injection (highest uptake), normal mice

Question: For `COC(=O)[C@H]1[C@@H](c2ccc(I)cc2)C[C@@H]2CC[C@H]1N2CCCF` [[^18F]FP-CIT, N-(3-fluoropropyl)-2β-carboxymethoxy-3β-(4-iodophenyl) nortropane], which uptake in cerebellum [1] is on record?
Answer: Its uptake in cerebellum is 21.42 ± 12.19 %ID/g.

Question: What about the uptake in striatum [1] of the same compound?
Answer: Its uptake in striatum is 23.50 ± 12.46 %ID/g.

Question: And the “uptake in the rest of the brain” value [1]?
Answer: The value was 20.06 ± 12.12 %ID/g.

Question: What about the “uptake in the liver” value (60 min after injection (highest uptake), normal mice) of the same compound?
Answer: The value was 30.82 ± 1.64 %ID/g.

Question: And the AUC (blood)?
Answer: The AUC was 95.43 ± 4.34 %ID*min/g.

Question: What about the CL (blood) of the same compound?
Answer: The CL was 1.05 ± 0.05 cc/min.

Question: And the Cmax (blood)?
Answer: Its Cmax is 2.68 ± 0.12 %ID/g.

Question: And the T1/2 (blood)?
Answer: The T1/2 was 11.12 ± 1.83 min.

Question: And the Tmax (blood)?
Answer: The Tmax was 1.00 ± 0.00 min.

Question: What about the AUC (bone) of the same compound?
Answer: The AUC was 636.73 ± 25.74 %ID*min/g.

Question: What about the CL (bone) of the same compound?
Answer: The CL was 0.16 ± 0.01 cc/min.

Question: And the Cmax (bone)?
Answer: The Cmax was 9.55 ± 1.48 %ID/g.

Question: And the T1/2 (bone)?
Answer: The T1/2 was 114.55 ± 23.62 min.

Question: And the Tmax (bone)?
Answer: Its Tmax is 120.00 ± 0.00 min.

Question: What about the “time of maximum concentration” value (brain, normal mice) of the same compound?
Answer: Its value is 1 min.

Question: What about the AUC (cerebellum) of the same compound?
Answer: Its AUC is 174.48 ± 20.00 %ID*min/g.

Question: What about the CL (cerebellum) of the same compound?
Answer: The CL was 0.58 ± 0.07 cc/min.

Question: And the Cmax (cerebellum)?
Answer: The Cmax was 10.97 ± 9.59 %ID/g.

Question: And the T1/2 (cerebellum)?
Answer: The T1/2 was 17.30 ± 17.89 min.

Question: What about the Tmax (cerebellum) of the same compound?
Answer: The Tmax was 1.00 ± 0.00 min.

Question: What about the AUC (heart) of the same compound?
Answer: Its AUC is 180.65 ± 13.75 %ID*min/g.

Question: And the CL (heart)?
Answer: The CL was 0.56 ± 0.04 cc/min.

Question: And the Cmax (heart)?
Answer: Its Cmax is 7.71 ± 0.74 %ID/g.

Question: And the T1/2 (heart)?
Answer: Its T1/2 is 62.29 ± 4.86 min.

Question: And the Tmax (heart)?
Answer: Its Tmax is 1.00 ± 0.00 min.

Question: What about the AUC (intestine) of the same compound?
Answer: The AUC was 614.35 ± 28.65 %ID*min/g.

Question: What about the CL (intestine) of the same compound?
Answer: The CL was 0.16 ± 0.01 cc/min.

Question: What about the Cmax (intestine) of the same compound?
Answer: Its Cmax is 6.00 ± 0.47 %ID/g.

Question: What about the T1/2 (intestine) of the same compound?
Answer: Its T1/2 is 497.98 ± 350.19 min.

Question: And the Tmax (intestine)?
Answer: Its Tmax is 19.00 ± 27.58 min.

Question: And the AUC (kidney)?
Answer: The AUC was 680.50 ± 45.28 %ID*min/g.

Question: And the CL (kidney)?
Answer: The CL was 0.15 ± 0.01 cc/min.

Question: And the Cmax (kidney)?
Answer: Its Cmax is 31.96 ± 5.10 %ID/g.

Question: What about the T1/2 (kidney) of the same compound?
Answer: Its T1/2 is 89.82 ± 11.39 min.

Question: And the Tmax (kidney)?
Answer: The Tmax was 1.00 ± 0.00 min.

Question: And the AUC (liver)?
Answer: The AUC was 3095.50 ± 181.39 %ID*min/g.

Question: And the CL (liver)?
Answer: The CL was 0.03 ± 0.00 cc/min.

Question: And the T1/2 (liver)?
Answer: Its T1/2 is 26.50 ± 4.4 min.

Question: And the Tmax (liver)?
Answer: Its Tmax is 4.00 ± 2.00 min.

Question: What about the AUC (lung) of the same compound?
Answer: The AUC was 408.70 ± 65.06 %ID*min/g.

Question: And the CL (lung)?
Answer: The CL was 0.25 ± 0.04 cc/min.

Question: And the Cmax (lung)?
Answer: Its Cmax is 21.31 ± 3.18 %ID/g.

Question: What about the T1/2 (lung) of the same compound?
Answer: The T1/2 was 79.46 ± 10.66 min.

Question: And the Tmax (lung)?
Answer: The Tmax was 1.00 ± 0.00 min.

Question: What about the “uptake in the intestine” value (maintained for 120 min after injection, normal mice) of the same compound?
Answer: The value was “approximately 5 %ID/g”.

Question: What about the AUC (muscle) of the same compound?
Answer: Its AUC is 150.08 ± 13.03 %ID*min/g.

Question: And the CL (muscle)?
Answer: Its CL is 0.67 ± 0.06 cc/min.

Question: And the Cmax (muscle)?
Answer: The Cmax was 2.42 ± 0.98 %ID/g.

Question: And the T1/2 (muscle)?
Answer: The T1/2 was 137.84 ± 198.01 min.

Question: What about the Tmax (muscle) of the same compound?
Answer: Its Tmax is 5.00 ± 0.00 min.

Question: And the AUC (rest of the brain)?
Answer: The AUC was 244.03 ± 34.63 %ID*min/g.

Question: What about the CL (rest of the brain) of the same compound?
Answer: Its CL is 0.42 ± 0.06 cc/min.

Question: And the Cmax (rest of the brain)?
Answer: The Cmax was 17.19 ± 16.17 %ID/g.

Question: And the T1/2 (rest of the brain)?
Answer: Its T1/2 is 55.64 ± 29.71 min.

Question: And the Tmax (rest of the brain)?
Answer: Its Tmax is 1.00 ± 0.00 min.

Question: What about the AUC (spleen) of the same compound?
Answer: The AUC was 288.90 ± 39.35 %ID*min/g.

Question: What about the CL (spleen) of the same compound?
Answer: The CL was 0.35 ± 0.05 cc/min.

Question: What about the Cmax (spleen) of the same compound?
Answer: Its Cmax is 14.52 ± 1.35 %ID/g.

Question: What about the T1/2 (spleen) of the same compound?
Answer: The T1/2 was 81.36 ± 16.91 min.

Question: And the Tmax (spleen)?
Answer: Its Tmax is 3.00 ± 2.31 min.

Question: And the AUC (stomach)?
Answer: The AUC was 444.70 ± 47.17 %ID*min/g.

Question: What about the CL (stomach) of the same compound?
Answer: The CL was 0.23 ± 0.02 cc/min.

Question: And the Cmax (stomach)?
Answer: Its Cmax is 7.14 ± 1.99 %ID/g.

Question: And the T1/2 (stomach)?
Answer: The T1/2 was 177.39 ± 36.93 min.

Question: What about the Tmax (stomach) of the same compound?
Answer: Its Tmax is 7.50 ± 2.89 min.

Question: What about the AUC (striatum) of the same compound?
Answer: Its AUC is 223.30 ± 37.82 %ID*min/g.

Question: What about the CL (striatum) of the same compound?
Answer: Its CL is 0.46 ± 0.08 cc/min.

Question: What about the T1/2 (striatum) of the same compound?
Answer: The T1/2 was 39.62 ± 18.71 min.

Question: And the Tmax (striatum)?
Answer: Its Tmax is 1.00 ± 0.00 min.
